Assay results reported in patent US7268113B2, “Long lasting growth hormone releasing factor derivatives” (ConjuChem Biotechnologies Inc., priority 2002, dated 2007).
Where two headings read alike, the source gives them in different places. Where a SMILES comes first, the peptide text is derived from it. [ ]: non-standard residue; d: D form. The star is where a group is joined. Propanoyl(3-maleimido) = O=C1C=CC(=O)N1CCC(=O)*

Experiments:
[1] = Pharmacokinetic studies in male Sprague-Dawley rats (plasma RIA); type: in vivo, rat
Experimental: Pharmacokinetic studies were carried out on the compounds of Examples 5 and 6. Each compound was injected subcutaneously (1 μmol/kg) or intravenously (100 nmol/kg) to male Sprague-Dawley rats. Serial blood samples were taken at pre-dose, 5, 30 and 60 minutes and 2, 4, 8, 24, 48, 72 and 96 hours post-agent administration. Plasma were harvested and frozen until analysis by radioimmunoassay (RIA). A commercial polyclonal antibody raised against human native GRF (1–29) was used to detect the compounds. The assay sensitivity was 300 to 10 000 pM. Consequently, some samples had to be diluted for analysis. The results of the pharmacokinetic profiles appear in FIG. 9. As it can be seen, the compound of Example 5, i.e., the native peptide, disappears very rapidly. In fact, the compound of Example 5, whether administered subcutaneously or intrasvenously, could not be detected after 60 minutes post administration. This is consistent with results in Sprague-Dawley rats reported in the literature for GRF (1–29) and other analogues thereof, regarding the terminal half-life thereof and the percentage of bioavailability (SC/IV) (see for example Peptides, 9:207–209, and J. Endocr., 107:R5–R8.

[2] = in vivo; cited from earlier work

λ ([1]; intravenous administration, 100 nmol/kg, male Sprague-Dawley rats) | half-life ([1]; rat, in vivo, sc, 1 umol/kg, subcutaneous administration, 1 μmol/kg, male Sprague-Dawley rats, read-out: Terminal half-life (converted)) [h] | time post administration at which compound remains detectable in plasma ([1]; subcutaneous (1 μmol/kg) or intravenous (100 nmol/kg), plasma RIA, FIG. 9) [h] | λ ([1]; subcutaneous administration, 1 μmol/kg, male Sprague-Dawley rats) | Molecule | half-life [2] [h]
0.037 | 25.8 ± 2.1 | ≥ 96 | 0.027 | CC[C@H](C)[C@H](NC(=O)[C@H](C)NC(=O)[C@H](CC(=O)O)NC(=O)[C@@H](C)NC(=O)[C@@H](N)Cc1ccc(O)cc1)C(=O)N[C@@H](Cc1ccccc1)C(=O)N[C@H](C(=O)N[C@@H](CCC(N)=O)C(=O)N[C@@H](CO)C(=O)N[C@@H](Cc1ccc(O)cc1)C(=O)N[C@@H](CCCNC(=N)N)C(=O)N[C@@H](CCCCN)C(=O)N[C@H](C(=O)N[C@@H](CC(C)C)C(=O)N[C@@H](C)C(=O)N[C@@H](CCC(N)=O)C(=O)N[C@@H](CC(C)C)C(=O)N[C@@H](CO)C(=O)N[C@@H](C)C(=O)N[C@@H](CCCNC(=N)N)C(=O)N[C@@H](CCCCN)C(=O)N[C@@H](CC(C)C)C(=O)N[C@@H](CC(C)C)C(=O)N[C@@H](CCC(N)=O)C(=O)N[C@@H](CC(=O)O)C(=O)N[C@H](C(=O)N[C@@H](CC(C)C)C(=O)N[C@@H](CO)C(=O)N[C@@H](CCCNC(=N)N)C(=O)N[C@@H](CCCCNC(=O)CCN1C(=O)C=CC1=O)C(N)=O)[C@@H](C)CC)C(C)C)[C@@H](C)O [Example 6] (H-Y[dA]DAIFTQSYRKVLAQLSARKLLQDILSRK(Propanoyl(3-maleimido))-NH2) | –
– | – | – | – | GRF 1–29: N-terminal 1–29 fragment of growth hormone releasing factor; commercial GRF(1–29) from Polypeptide Laboratories used as comparator | 0.167 to 0.217
